This test concerns the target T1, human PDE9A2 (Homo sapiens, UniProt O76083).
T1 construct: made in house; host or cells: Sf9 insect cells (infected); crude lysate used as enzyme source
The test can be described thus: PDE9A2 enzymatic activity assay (scintillation proximity assay, SPA). In kind it is biochemical. Particulars: for inhibition at 10 µM: read-out: % inhibition of PDE9A2 (at 10 micromolar concentration), 10 micromolar concentration; for inhibition at 10 µM / % inhibition of PDE9A2 (at 10 micromolar concentration): values above 100% adjusted to 100%; for IC50: reported only as range 1-100 or 101-1200 nanomolar, specific value lies within range, read-out: IC50 within range [nanomolar (nM)]. (In general: Scintillation proximity formats need no separation of bound from free tracer.)

The values below come from patent US8623879B2, “1-heterocyclyl-1,5-dihydro-pyrazolo[3,4-D] pyrimidin-4-one derivates and their use as PDE9A modulators” (Boehringer Ingelheim International GmbH, priority 2008, dated 2014).

One may read the IC50 as the concentration that inhibits the measured activity by half.

T1 sequence (O76083 1-533 isoform O76083-2): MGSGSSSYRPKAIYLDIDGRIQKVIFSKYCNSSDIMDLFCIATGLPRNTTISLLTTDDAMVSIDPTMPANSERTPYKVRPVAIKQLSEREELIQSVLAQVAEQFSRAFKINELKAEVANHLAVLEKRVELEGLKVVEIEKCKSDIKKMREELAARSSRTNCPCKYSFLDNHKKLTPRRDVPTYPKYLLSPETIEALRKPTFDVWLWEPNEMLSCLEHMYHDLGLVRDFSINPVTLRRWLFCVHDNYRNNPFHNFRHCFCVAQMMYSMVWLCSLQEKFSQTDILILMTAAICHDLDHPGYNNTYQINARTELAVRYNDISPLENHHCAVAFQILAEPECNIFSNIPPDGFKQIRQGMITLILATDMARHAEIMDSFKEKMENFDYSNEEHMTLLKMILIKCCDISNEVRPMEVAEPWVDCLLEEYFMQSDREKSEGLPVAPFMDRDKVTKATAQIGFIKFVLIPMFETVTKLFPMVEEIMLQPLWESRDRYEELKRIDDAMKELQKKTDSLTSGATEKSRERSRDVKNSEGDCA

In the case of `O=c1[nH]c(Cc2ccc(F)c(Cl)c2)nc2c1cnn2C1CCCOC1` (racemic) [Example 102], the inhibition at 10 µM stood at 100% and the concentration for half-maximal inhibition (IC50) was in the range of 1 to 100 nM.
In the same order, the values of `O=c1[nH]c(CC2CCCCC2)nc2c1cnn2C1CCCOC1` (racemic) [Example 103] are 99% and 1 to 100 nM.
In the same order, the values of `CC1(C)CC(n2ncc3c(=O)[nH]c(CC4CCCC4)nc32)CCO1` (racemic) [Example 104] are 95% and 101 to 1200 nM.
As to `CCOc1ccccc1Cc1nc2c(cnn2C2CCOC(C)(C)C2)c(=O)[nH]1` (racemic) [Example 105], the inhibition at 10 µM was found to be 84% and the IC50 was 101 to 1200 nM.
In the same order, the values of `CC(C)Cc1nc2c(cnn2C2CCOC(C)(C)C2)c(=O)[nH]1` (racemic) [Example 106] are 87% and 101 to 1200 nM.
In the same order, the values of `CC1(C)CC(n2ncc3c(=O)[nH]c(CC4CCC4)nc32)CCO1` (racemic) [Example 108] are 89% and 101 to 1200 nM.
In the same order, the values of `CC1CC(n2ncc3c(=O)[nH]c(Cc4ccccn4)nc32)CCO1` (racemic) [Example 111] are 88% and 101 to 1200 nM.
Regarding `CC1CC(n2ncc3c(=O)[nH]c(CC4CCCC4)nc32)CCO1` (racemic) [Example 112], the inhibition at 10 µM amounted to 97% and the IC50 was in the range of 1 to 100 nM.
For `CC1CC(n2ncc3c(=O)[nH]c(Cc4ccccc4C(F)(F)F)nc32)CCO1` (racemic) [Example 113], the inhibition at 10 µM amounted to 92% and the IC50 fell in the range of 101 to 1200 nM.
In the same order, the values of `CC(C)Cc1nc2c(cnn2C2CCOC(C)C2)c(=O)[nH]1` (racemic) [Example 114] are 89% and 101 to 1200 nM.
As for `CC(C)Cc1nc2c(cnn2C2CCOC(C)C2)c(=O)[nH]1` (racemic) [Example 115], the “% inhibition of PDE9A2 (at 10 micromolar concentration)” value is on record as 92% and the 50% inhibitory concentration (IC50) lay in the range of 101 to 1200 nM.
In the same order, the values of `CC1CC(n2ncc3c(=O)[nH]c(Cc4ccccc4C(F)(F)F)nc32)CCO1` (racemic) [Example 116] are 93% and 101 to 1200 nM.
In the same order, the values of `CC1CC(n2ncc3c(=O)[nH]c(CC4CCCC4)nc32)CCO1` (racemic) [Example 117] are 97% and 1 to 100 nM.
In the same order, the values of `CC1CC(n2ncc3c(=O)[nH]c(Cc4ccccn4)nc32)CCO1` (racemic) [Example 118] are 89% and 101 to 1200 nM.
With `CCC(CC)Cc1nc2c(cnn2C2CCOC(C)C2)c(=O)[nH]1` (racemic) [Example 119], the inhibition at 10 µM amounted to 95% and the IC50 was 1 to 100 nM.
In the same order, the values of `CC1CC(n2ncc3c(=O)[nH]c(CC4CCC4)nc32)CCO1` (racemic) [Example 120] are 95% and 1 to 100 nM.
In the same order, the values of `CC1CC(n2ncc3c(=O)[nH]c(Cc4ccccc4C#N)nc32)CCO1` (racemic) [Example 121] are 94% and 101 to 1200 nM.
In the same order, the values of `COc1cccnc1Cc1nc2c(cnn2C2CCCOC2)c(=O)[nH]1` (racemic) [Example 122] are 85% and 101 to 1200 nM.
On to `O=c1[nH]c(Cc2ccccn2)nc2c1cnn2C1CCOC1` (racemic) [Example 124], for which the inhibition at 10 µM was found to be 95% and the IC50 lay within 101 to 1200 nM.
In the same order, the values of `N#Cc1ccccc1Cc1nc2c(cnn2C2CCCOC2)c(=O)[nH]1` (racemic) [Example 126] are 98% and 1 to 100 nM.
Consider `COc1ccccc1Cc1nc2c(cnn2C2CCCOC2)c(=O)[nH]1` (racemic) [Example 127], for which the inhibition at 10 µM was 97% and the IC50 lay within 1 to 100 nM.
In the same order, the values of `O=c1[nH]c(Cc2cccc(C(F)(F)F)c2)nc2c1cnn2C1CCCOC1` (racemic) [Example 129] are 99% and 1 to 100 nM.
In the same order, the values of `CCC(CC)Cc1nc2c(cnn2C2CCCOC2)c(=O)[nH]1` (racemic) [Example 130] are 99% and 1 to 100 nM.
Turning to `CC(C)Cc1nc2c(cnn2C2CCOCC2C)c(=O)[nH]1` (racemic) [Example 132-1], the inhibition at 10 µM is 97% and the 50% inhibitory concentration (IC50) fell in the range of 1 to 100 nM.
In the same order, the values of `CC1COCCC1n1ncc2c(=O)[nH]c(CC3CCCC3)nc21` (racemic) [Example 132-2] are 100% and 1 to 100 nM.
Regarding `CC1COCCC1n1ncc2c(=O)[nH]c(CC3CCCC3)nc21` (racemic) [Example 132-5], the “% inhibition of PDE9A2 (at 10 micromolar concentration)” value is given as 100% and the IC50 is 1 to 100 nM.
In the same order, the values of `CC(C)Cc1nc2c(cnn2C2CCOCC2C)c(=O)[nH]1` (racemic) [Example 132-8] are 94% and 101 to 1200 nM.
On to `CCC(C)Cc1nc2c(cnn2C2CCOCC2)c(=O)[nH]1` (racemic) [Example 135], for which the inhibition at 10 µM turned out to be 98% and the IC50 fell in the range of 1 to 100 nM.
In the same order, the values of `O=c1[nH]c(Cc2ccccn2)nc2c1cnn2C1CCCCO1` (racemic) [Example 145] are 84% and 101 to 1200 nM.
In the same order, the values of `CC(C)Cc1nc2c(cnn2C2CCCCO2)c(=O)[nH]1` (racemic) [Example 146] are 91% and 101 to 1200 nM.
In the same order, the values of `O=c1[nH]c(Cc2ccccc2C(F)(F)F)nc2c1cnn2C1CCCCO1` (racemic) [Example 147-1] are 86% and 101 to 1200 nM.
Consider `O=c1[nH]c(CC2CC2)nc2c1cnn2C1CCCCO1` (racemic) [Example 147-2], for which the inhibition at 10 µM was determined as 87% and the concentration for half-maximal inhibition (IC50) fell in the range of 101 to 1200 nM.
In the same order, the values of `O=c1[nH]c(Cc2cccc(C(F)(F)F)c2)nc2c1cnn2C1CCCCO1` (racemic) [Example 147-3] are 95% and 1 to 100 nM.
In the same order, the values of `O=c1[nH]c(CC2CCCC2)nc2c1cnn2C1CCCCO1` (racemic) [Example 147] are 99% and 1 to 100 nM.
Take `COC(=O)N1CCCC(n2ncc3c(=O)[nH]c(CC4CCCC4)nc32)C1` (racemic) [Example 154]: the inhibition at 10 µM amounted to 100% and the half-inhibitory concentration (IC50) lay in the range of 1 to 100 nM.
In the same order, the values of `COC(=O)N1CCCC(n2ncc3c(=O)[nH]c(Cc4ccccc4)nc32)C1` (racemic) [Example 155] are 100% and 1 to 100 nM.
In the same order, the values of `COC(=O)N1CCCC(n2ncc3c(=O)[nH]c(Cc4ccccc4OC(F)(F)F)nc32)C1` (racemic) [Example 156] are 99% and 1 to 100 nM.
Consider `CC(=O)N1CCCC(n2ncc3c(=O)[nH]c(CC4CCCC4)nc32)C1` (racemic) [Example 157], for which the inhibition at 10 µM turned out to be 97% and the IC50 is 1 to 100 nM.
`CC(=O)N1CCCC(n2ncc3c(=O)[nH]c(Cc4ccccc4)nc32)C1` (racemic) [Example 158]: the inhibition at 10 µM was determined as 97% and the half-inhibitory concentration (IC50) lay within 1 to 100 nM.
In the same order, the values of `CN(C)C(=O)N1CCCC(n2ncc3c(=O)[nH]c(Cc4ccccc4)nc32)C1` (racemic) [Example 159] are 100% and 1 to 100 nM.
In the same order, the values of `CN(C)C(=O)N1CCCC(n2ncc3c(=O)[nH]c(CC4CCCC4)nc32)C1` (racemic) [Example 160] are 96% and 1 to 100 nM.
In the same order, the values of `CN(C)C(=O)N1CCCC(n2ncc3c(=O)[nH]c(Cc4ccccc4OC(F)(F)F)nc32)C1` (racemic) [Example 161] are 95% and 101 to 1200 nM.
Consider `O=C(Oc1ccc(F)cc1)N1CCCC(n2ncc3c(=O)[nH]c(CC4CCCC4)nc32)C1` (racemic) [Example 162], for which the inhibition at 10 µM is 98% and the IC50 fell in the range of 1 to 100 nM.
In the same order, the values of `O=C(c1ccccc1)N1CCCC(n2ncc3c(=O)[nH]c(Cc4ccccc4OC(F)(F)F)nc32)C1` (racemic) [Example 163] are 97% and 101 to 1200 nM.
In the same order, the values of `CC(=O)N1CCC(n2ncc3c(=O)[nH]c(Cc4ccccc4OC(F)(F)F)nc32)C1` (racemic) [Example 164] are 98% and 101 to 1200 nM.
In the same order, the values of `CC(=O)N1CCC(n2ncc3c(=O)[nH]c(CC4CCCC4)nc32)C1` (racemic) [Example 165] are 99% and 101 to 1200 nM.
For the compound `O=C(c1ccccc1)N1CCC(n2ncc3c(=O)[nH]c(Cc4ccccc4)nc32)C1` (racemic) [Example 166], the inhibition at 10 µM came to 92% and the IC50 lay in the range of 101 to 1200 nM.
In the same order, the values of `O=C(c1ccccc1)N1CCC(n2ncc3c(=O)[nH]c(CC4CCCC4)nc32)C1` (racemic) [Example 167] are 93% and 101 to 1200 nM.
In the same order, the values of `COc1ccccc1Cc1nc2c(cnn2C2CCN(C(C)=O)C2)c(=O)[nH]1` (racemic) [Example 168] are 90% and 101 to 1200 nM.
In the same order, the values of `O=C(c1ccccc1)N1CCC(n2ncc3c(=O)[nH]c(Cc4ccccc4OC(F)(F)F)nc32)C1` (racemic) [Example 169] are 86% and 101 to 1200 nM.
As for `COc1ccccc1Cc1nc2c(cnn2C2CCN(C(=O)c3ccccc3)C2)c(=O)[nH]1` (racemic) [Example 170], the inhibition at 10 µM came out at 75% and the IC50 was in the range of 101 to 1200 nM.
For the compound `O=C(c1ccccc1)N1CCC(n2ncc3c(=O)[nH]c(CC4CCC4)nc32)C1` (racemic) [Example 171], the inhibition at 10 µM worked out at 100% and the IC50 was 101 to 1200 nM.
In the same order, the values of `CC(=O)N1CCC(n2ncc3c(=O)[nH]c(Cc4ccccc4)nc32)C1` (racemic) [Example 172] are 100% and 1 to 100 nM.
